Measurements from ChEMBL document CHEMBL1201862, “PubChem BioAssay data set” (2004).
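Five compound concentrations were applied to cells in 96-well plates for 48 hours; endpoints were derived by simple linear interpolation of the resulting dose-response curve. Here, GI50 denotes the concentration required for 50% inhibition of growth.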 Activity calls are given as the source filed them. Rule as the data show it: active = GI50 up to about 1.1 µM and inactive = higher.

Legend:
Experiment in all cases: inhibition of tumour cell growth, NCI panel, 48 h
RXF 631 = system: RXF 631
DLD-1 = system: DLD-1
KM-20L2 = system: KM-20L2
SNB-78 = system: SNB-78
LXFL 529 = system: LXFL 529
DMS-273 = system: DMS-273
M19-MEL = system: M19-MEL
HOP-18 = system: HOP-18
XF498 = system: XF498

| Compound | GI50 (RXF 631) | GI50 (DLD-1) | GI50 (KM-20L2) | GI50 (SNB-78) | GI50 (LXFL 529) | GI50 (DMS-273) | GI50 (M19-MEL) | GI50 (HOP-18) | GI50 (XF498) |
| --- | --- | --- | --- | --- | --- | --- | --- | --- | --- |
| CCN(CC)CC(O)CNc1ccc(NCC2CO2)c2c1C(=O)c1ccccc1C2=O (centres undefined) | 0.272 µM (active) | 1.9 µM (inactive) | 0.692 µM (active) | 0.398 µM (active) | 0.0486 µM (active) | 0.242 µM (active) | 0.125 µM (active) | 16.6 µM (inactive) | – |
| O=c1nc(NC2CCCCO2)ccn1CCO (centres undefined) | > 100 µM (inactive) | > 100 µM (inactive) | > 100 µM (inactive) | > 100 µM (inactive) | > 100 µM (inactive) | > 100 µM (inactive) | > 100 µM (inactive) | > 100 µM (inactive) | 51.4 µM (inactive) |
| CCN(CC)CCC(=O)N1CCc2c([nH]c3ccccc23)C1c1cccnc1 (centres undefined) | – | > 100 µM (inactive) | > 100 µM (inactive) | > 100 µM (inactive) | > 100 µM (inactive) | > 100 µM (inactive) | > 100 µM (inactive) | > 100 µM (inactive) | > 100 µM (inactive) |
| CN(C)c1ccc(C2CC(=O)C(C#N)=C(c3ccccc3)NN2C)cc1 (centres undefined) | 44.7 µM (inactive) | 5.25 µM (inactive) | – | 50.4 µM (inactive) | 8.28 µM (inactive) | – | – | 96.6 µM (inactive) | 4.55 µM (inactive) |
| CCn1c(C)nn2c(=O)c3ccccc3nc2c1=O | – | > 100 µM (inactive) | > 100 µM (inactive) | > 100 µM (inactive) | > 100 µM (inactive) | > 100 µM (inactive) | > 100 µM (inactive) | > 100 µM (inactive) | > 100 µM (inactive) |
| N#Cc1ccccc1NC(=O)/C(=N\Nc1ccc([N+](=O)[O-])cc1)C1C(=O)NC(=O)NC1=O | – | > 100 µM (inactive) | > 100 µM (inactive) | > 100 µM (inactive) | > 100 µM (inactive) | – | > 100 µM (inactive) | – | – |
| C=C(CN(C)C)C(=O)c1ccccc1C | > 100 µM (inactive) | 20.9 µM (inactive) | > 67.1 µM (inactive) | > 100 µM (inactive) | 15.7 µM (inactive) | 24.5 µM (inactive) | 23.4 µM (inactive) | 22.9 µM (inactive) | > 50.9 µM (inactive) |
| COc1ccc(/C=C(\C(C)=O)C(=O)Nc2ccccc2)cc1 | – | > 100 µM (inactive) | – | > 100 µM (inactive) | > 100 µM (inactive) | – | > 100 µM (inactive) | > 100 µM (inactive) | – |
| CC[C@]1(O)C(=O)OCc2c1cc1n(c2=O)Cc2cc3c(N)cccc3nc2-1 | > 100 µM (inactive) | > 100 µM (inactive) | > 100 µM (inactive) | – | > 100 µM (inactive) | > 100 µM (inactive) | > 100 µM (inactive) | > 100 µM (inactive) | > 100 µM (inactive) |
| CC1=NN(c2ccccc2)C(=O)C1/N=N/c1ccc(Br)cc1C (centres undefined) | 32.4 µM (inactive) | > 100 µM (inactive) | 0.634 µM (active) | 79.6 µM (inactive) | > 100 µM (inactive) | > 100 µM (inactive) | > 100 µM (inactive) | 3.62 µM (inactive) | – |
| CC(C)c1ccc(O)c(Cc2cc(C(C)C)cc(Cc3cc(C(C)C)ccc3O)c2O)c1 | – | 2.01 µM (inactive) | 2.07 µM (inactive) | 2.05 µM (inactive) | 1.49 µM (inactive) | – | 1.61 µM (inactive) | – | 1.41 µM (inactive) |
| O=C(c1ccc(Cl)cc1)N(C(=S)N1CCN(c2ccccc2)CC1)C1CCCCC1 | – | > 100 µM (inactive) | > 100 µM (inactive) | > 100 µM (inactive) | > 100 µM (inactive) | 46.9 µM (inactive) | > 100 µM (inactive) | > 100 µM (inactive) | – |
| COc1ccc(NC(=O)C(=O)c2c(O)c3ccc(O)cc3oc2=O)c([N+](=O)[O-])c1 | > 100 µM (inactive) | > 100 µM (inactive) | > 100 µM (inactive) | – | > 100 µM (inactive) | > 100 µM (inactive) | > 100 µM (inactive) | – | – |
| O=C(N/C=C1\C(=O)Oc2ccccc2C1=O)Nc1ccccc1 | – | 42.6 µM (inactive) | > 100 µM (inactive) | 30.1 µM (inactive) | 81.1 µM (inactive) | > 100 µM (inactive) | 55.8 µM (inactive) | 27.5 µM (inactive) | 74.3 µM (inactive) |
| O=C(C(=O)n1ncc(Cl)c(Cl)c1=O)n1ncc(Cl)c(Cl)c1=O | 38 µM (inactive) | 16 µM (inactive) | 29.6 µM (inactive) | 28.6 µM (inactive) | 14.6 µM (inactive) | 17.9 µM (inactive) | 20.4 µM (inactive) | 31.8 µM (inactive) | 26.2 µM (inactive) |
| CC1(C(=O)Nc2ccc3cc4ccccc4cc3c2)CC2(C)CC(C)(C1)C(O)NC2=O (centres undefined) | – | 32.9 µM (inactive) | 85.3 µM (inactive) | > 100 µM (inactive) | > 100 µM (inactive) | > 100 µM (inactive) | > 100 µM (inactive) | 93.5 µM (inactive) | > 100 µM (inactive) |
| Cc1ccc([S+](c2ccccc2)c2cc(C)ccc2C)cc1.O=C(OC(C(=O)[O-])C(OC(=O)c1ccccc1)C(=O)O)c1ccccc1 (centres undefined) | – | 14.6 µM (inactive) | 7.73 µM (inactive) | 17.7 µM (inactive) | – | 1.89 µM (inactive) | 5.41 µM (inactive) | 12.3 µM (inactive) | 3.75 µM (inactive) |
| OC(C1CO1)C(O)C1CO1 (centres undefined) | – | > 150 µM (inactive) | 140 µM (inactive) | 85.9 µM (inactive) | – | 8.81 µM (inactive) | 74.8 µM (inactive) | 145 µM (inactive) | 37.2 µM (inactive) |
| O=C(Nc1c(Cl)cc([N+](=O)[O-])cc1Cl)C(=O)C(C(=O)c1ccncc1)C1OC(=O)c2ccccc21 (centres undefined) | > 100 µM (inactive) | > 100 µM (inactive) | > 100 µM (inactive) | > 100 µM (inactive) | > 100 µM (inactive) | > 100 µM (inactive) | > 100 µM (inactive) | > 100 µM (inactive) | > 100 µM (inactive) |
| COC(=O)c1ccccc1N(C(=O)c1ccccc1)c1ccccc1C | – | 43 µM (inactive) | 73.8 µM (inactive) | – | 85.5 µM (inactive) | 47.1 µM (inactive) | 48.2 µM (inactive) | 41.2 µM (inactive) | 22.7 µM (inactive) |
| O=[N+]([O-])c1ccc(Cl)c(C2CC(c3cccc4ccccc34)=Nc3ccccc3S2)c1 (centres undefined) | > 65 µM (inactive) | 13.2 µM (inactive) | 29.3 µM (inactive) | 26.5 µM (inactive) | 18.5 µM (inactive) | 20.4 µM (inactive) | 20.2 µM (inactive) | 26.9 µM (inactive) | – |
| COC(=O)CC(C(C(=O)OC)C(=O)OC)N1C(=O)OCC1c1ccccc1 (centres undefined) | > 100 µM (inactive) | > 100 µM (inactive) | > 100 µM (inactive) | – | > 100 µM (inactive) | 97.1 µM (inactive) | > 100 µM (inactive) | – | > 100 µM (inactive) |
| COc1ccccc1/C=C1\CCC(CCN(C)C)(C2=CCCC2)C1=O (centres undefined) | 13.9 µM (inactive) | 16.8 µM (inactive) | 1.7 µM (inactive) | 23.9 µM (inactive) | 16.1 µM (inactive) | 17.5 µM (inactive) | 17.9 µM (inactive) | 26.5 µM (inactive) | 16.5 µM (inactive) |
| COc1ccc(C/C(=N/O)C(=O)NCCc2cc(Br)c(OCCCN(C)C)c(Br)c2)cc1Br [APLYSAMINE 2] | – | 7.8 µM (inactive) | 18.5 µM (inactive) | 18.5 µM (inactive) | 16.1 µM (inactive) | 0.791 µM (active) | 18.2 µM (inactive) | 0.0528 µM (active) | 12.9 µM (inactive) |
| O=C1N[C@H]2[C@H](O)[C@H](O)[C@@H](O)[C@H](O)[C@@H]2c2cc3c(c(O)c21)OCO3 [PANCRATISTATIN] | 0.649 µM (active) | 0.0415 µM (active) | 0.0445 µM (active) | 0.0452 µM (active) | 0.541 µM (active) | 0.0826 µM (active) | 0.0388 µM (active) | 0.0598 µM (active) | 0.0237 µM (active) |
